Source: patent US11945808B2, “Substituted cyclohexyl compounds as NOP inhibitors” (Dart NeuroScience, LLC, priority 2018, dated 2024)

The compounds below were run against human opioid NOP (Homo sapiens, UniProt P41146) (assay: Cell-based NOP cAMP assay (LANCE cAMP, TR-FRET)). Conditions: antagonism of nociceptin in cAMP assay, cells expressing human NOP, forskolin-stimulated; values given as ranges; read-out: NOP (pIC50) (converted).
Method: Formula (I) compounds were tested for antagonism of the nociceptin receptor (NOP) in a cell-based cAMP assay, using the LANCE cAMP Detection Kit, Perkin Elmer (Waltham, MA). This assay (LANCE cAMP) is a homogeneous, time-resolved fluorescence resonance energy transfer (TR-FRET) immunoassay designed to measure cAMP produced upon modulation of adenylyl cyclase activity by G protein-coupled receptors (GPCRs).
Cells expressing human opioid NOP (ValiScreen cell line, cat #ES-230-C Perkin Elmer (Waltham, MA) were dispensed in simulation buffer (5 mM Hepes, 0.1% BSA, 0.5 mM IBMX in Hanks Buffered Saline Solution) at 2.5 μL cells per well (400 cells/well) into a 1536 white TC-treated assay plate. Compound was then added and plates were incubated for 15 minutes at room temperature. To each well was added 2.5 μL of a solution containing forskolin (3 μM final) and nociceptin peptide ([…] final) diluted in stimulation buffer, and the plates were incubated for 30 minutes at room temperature. To each well was dispensed 5 μL of LANCE Ultra detection (1:300 dilution of anti-cAMP ULight with a 1:100 dilution of Eu-cAMP tracer diluted in cAMP Detection Buffer) reagent, and the plates were incubated for 1 hr at room temperature. The plate was then read on the ViewLux microplate reader (Perkin Elmer, Waltham, MA) using the LANCE 1536 protocol with 60 second exposure times and 50 μs delay. This protocol has an excitation wavelength of 340 nm (DUG11 filter) and emission wavelengths of 615 nm (Eu-Donor) and 665 nm (Alexa 647 cAMP antibody acceptor).
Data was analyzed, normalized, and visualized using ACAS (John McNeil & Co.). Efficacy was calculated using activity of the vehicle (DMSO) as 0% efficacy and the activity of the corresponding reference positive control (SCH 221510, Tocris Bioscience (Pittsburgh, PA), Catalog number 3240) as 100% efficacy. Activity was calculated as the ratio of donor and acceptor emissions. All curve fits and IC50 determinations were performed using a non-linear regression model. The IC50 value was measured as the concentration at which half-maximal response was calculated.

human opioid NOP, sequence (P41146 whole entry): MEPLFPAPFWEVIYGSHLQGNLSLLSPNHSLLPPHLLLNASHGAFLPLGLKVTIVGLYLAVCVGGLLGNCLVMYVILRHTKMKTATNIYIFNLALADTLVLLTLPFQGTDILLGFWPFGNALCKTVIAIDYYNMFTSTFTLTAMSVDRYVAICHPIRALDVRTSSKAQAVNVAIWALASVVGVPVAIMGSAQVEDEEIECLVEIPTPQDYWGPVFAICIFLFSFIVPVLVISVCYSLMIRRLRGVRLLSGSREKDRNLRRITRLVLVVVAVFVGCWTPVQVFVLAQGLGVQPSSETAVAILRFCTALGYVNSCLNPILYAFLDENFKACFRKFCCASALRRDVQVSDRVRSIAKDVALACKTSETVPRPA

IC50 [nM]	SMILES
> 1000	NC(=O)C1(NCCC2CCC(c3cccc(F)c3Cl)CC2)CCCC1 (stereo not shown) [Example 114, 1-({2-[4-(2-Chloro-3-fluorophenyl)cyclohexyl]ethyl}amino)cyclopentane-1-carboxamide]
> 1000	CC(=O)N1CCC(NCCC2CCC(c3cnccc3C)CC2)CC1 (stereo not shown) [Example 175, 1-[4-({2-[4-(4-Methylpyridin-3-yl)cyclohexyl]ethyl}amino)piperidin-1-yl]ethan-1-one]
> 1000	Cc1cnccc1C1CCC(CCNC2(C(N)=O)CCCC2)CC1 (stereo not shown) [Example 123, 1-({2-[4-(3-Methylpyridin-4-yl)cyclohexyl]ethyl}amino)cyclopentane-1-carboxamide]
1 to 10	Clc1cccc(Cl)c1C1CCC(CCNC2CCOCC2)CC1 (single isomer, unassigned) [Example 8, N-(2-((cis)-4-(2,6-dichlorophenyl)cyclohexyl)ethyl)tetrahydro-2H-pyran-4-amine]
> 1000	CC(=O)N1CCC(NCCC2CCC(c3ncc(F)cc3Cl)CC2)CC1 (stereo not shown) [Example 172, 1-[4-({2-[4-(3-Chloro-5-fluoropyridin-2-yl)cyclohexyl]ethyl}amino)piperidin-1-yl]ethan-1-one]
> 1000	Cc1nccnc1[C@H]1CC[C@H](CCNC2CCOCC2)CC1 [Example 88, N-(2-((trans)-4-(3-methylpyrazin-2-yl)cyclohexyl)ethyl)tetrahydro-2H-pyran-4-amine]
> 1000	CNC(=O)C1(NCC[C@H]2CC[C@@H](c3ncc(F)cc3C(F)(F)F)CC2)CCOCC1 [Example 50, 4-((2-((cis)-4-(5-fluoro-3-(trifluoromethyl)pyridin-2-yl)cyclohexyl)ethyl)amino)-N-methyltetrahydro-2H-pyran-4-carboxamide]
> 1000	CC1(NCCC2CCC(c3cccc(F)c3Cl)CC2)CCCC1 (stereo not shown) [Example 106, N-{2-[4-(2-Chloro-3-fluorophenyl)cyclohexyl]ethyl}-1-methylcyclopentan-1-amine]
< 1	Fc1ccc([C@H]2CC[C@@H](CCNC3CCOCC3F)CC2)c(Cl)c1 (single isomer, unassigned) [Example 57, N-(2-((cis)-4-(2-chloro-4-fluorophenyl)cyclohexyl)ethyl)-3-fluorotetrahydro-2H-pyran-4-amine]
> 1000	CNC(=O)C1(NCC[C@H]2CC[C@H](c3ncc(F)cc3C(F)(F)F)CC2)CCOCC1 [Example 51, 4-((2-((trans)-4-(5-fluoro-3-(trifluoromethyl)pyridin-2-yl)cyclohexyl)ethyl)amino)-N-methyltetrahydro-2H-pyran-4-carboxamide]
> 1000	CC(=O)N1CCC(NCCC2CCC(c3cc(F)ccc3Cl)CC2)CC1 (stereo not shown) [Example 178, 1-[4-({2-[4-(2-Chloro-5-fluorophenyl)cyclohexyl]ethyl}amino)piperidin-1-yl]ethan-1-one]
100 to 1000	Cc1c(F)c(F)ccc1[C@H]1CC[C@H](CCNC2(C(N)=O)CCOCC2)CC1 [Example 49, 4-((2-((trans)-4-(3,4-difluoro-2-methylphenyl)cyclohexyl)ethyl)amino)tetrahydro-2H-pyran-4-carboxamide]
> 1000	Cc1cnccc1C1CCC(CCNC2(C)CCCC2)CC1 (stereo not shown) [Example 121, 1-Methyl-N-{2-[4-(3-methylpyridin-4-yl)cyclohexyl]ethyl}cyclopentan-1-amine]
1 to 10	O=C1CC(NCC[C@H]2CC[C@H](c3ccc(F)cc3Cl)CC2)CCN1 (mixture of isomers) [Example 163, Racemic-4-({2-[(trans)-4-(2-Chloro-4-fluorophenyl)cyclohexyl]ethyl}amino)piperidin-2-one]
> 1000	CC(=O)N1CCC(NCCC2CCC(c3cccc(F)c3Cl)CC2)CC1 (stereo not shown) [Example 171, 1-[4-({2-[4-(2-Chloro-3-fluorophenyl)cyclohexyl]ethyl}amino)piperidin-1-yl]ethan-1-one]
> 1000	Cc1cccnc1C1CCC(CCNC2(C(N)=O)CCCC2)CC1 (stereo not shown) [Example 117, 1-({2-[4-(3-Methylpyridin-2-yl)cyclohexyl]ethyl}amino)cyclopentane-1-carboxamide]
> 1000	Cc1cccnc1C1CCC(CCNC2CCN(C)CC2)CC1 (stereo not shown) [Example 182, 1-Methyl-N-{2-[4-(3-methylpyridin-2-yl)cyclohexyl]ethyl}piperidin-4-amine]
> 1000	Cc1ccncc1C1CCC(CCNC2(C(N)=O)CCCC2)CC1 (stereo not shown) [Example 118, 1-({2-[4-(4-Methylpyridin-3-yl)cyclohexyl]ethyl}amino)cyclopentane-1-carboxamide]
> 1000	CC(=O)N1CCC(NCCC2CCC(c3ncccc3C)CC2)CC1 (stereo not shown) [Example 174, 1-[4-({2-[4-(3-Methylpyridin-2-yl)cyclohexyl]ethyl}amino)piperidin-1-yl]ethan-1-one]
> 1000	Cc1ccncc1C1CCC(CCNC2(C)CCCC2)CC1 (stereo not shown) [Example 111, 1-Methyl-N-{2-[4-(4-methylpyridin-3-yl)cyclohexyl]ethyl}cyclopentan-1-amine]
> 1000	Cc1cnccc1C1CCC(CCNC2(C)CCOCC2)CC1 (stereo not shown) [Example 139, 4-Methyl-N-{2-[4-(3-methylpyridin-4-yl)cyclohexyl]ethyl}oxan-4-amine]
> 1000	CC(=O)N1CCC(NCCC2CCC(c3ncccc3Cl)CC2)CC1 (stereo not shown) [Example 173, 1-[4-({2-[4-(3-Chloropyridin-2-yl)cyclohexyl]ethyl}amino)piperidin-1-yl]ethan-1-one]
> 1000	CN1CCC(NCCC2CCC(c3cccc(F)c3Cl)CC2)CC1 (stereo not shown) [Example 179, N-{2-[4-(2-Chloro-3-fluorophenyl)cyclohexyl]ethyl}-1-methylpiperidin-4-amine]
> 1000	CN1CCC(NCCC2CCC(c3ncccc3Cl)CC2)CC1 (stereo not shown) [Example 181, N-{2-[4-(3-Chloropyridin-2-yl)cyclohexyl]ethyl}-1-methylpiperidin-4-amine]
> 1000	COCC1(NCCC2CCC(c3ncccc3Cl)CC2)CCOCC1 (stereo not shown) [Example 146, N-{2-[4-(3-Chloropyridin-2-yl)cyclohexyl]ethyl}-4-(methoxymethyl)oxan-4-amine]
> 1000	Cc1cnccc1C1CCC(CCNC2CCN(C)CC2)CC1 (stereo not shown) [Example 187, 1-Methyl-N-{2-[4-(3-methylpyridin-4-yl)cyclohexyl]ethyl}piperidin-4-amine]
> 1000	NC(=O)C1(NCCC2CCC(c3ncccc3Cl)CC2)CCCC1 (stereo not shown) [Example 116, 1-({2-[4-(3-Chloropyridin-2-yl)cyclohexyl]ethyl}amino)cyclopentane-1-carboxamide]
> 1000	Fc1cnc([C@H]2CC[C@H](CCNC3CCOCC3)CC2)nc1 [Example 12, N-(2-((trans)-4-(5-fluoropyrimidin-2-yl)cyclohexyl)ethyl)tetrahydro-2H-pyran-4-amine]
